According to patent US12485191B2, “Radiopharmaceuticals and methods of use thereof” (BOARD OF REGENTS OF THE UNIVERSITY OF NEBRASKA, priority 2017, dated 2025):
Marks after values point to notes of the source that are not given here.

Key:
[1] = target: T1, cathepsin B (human Liver) (Homo sapiens, UniProt P07858); experiment: Inhibition constant (Ki) of the compounds to cathepsin B; format: biochemical
T1 construct: from tissue; host or cells: human liver
Description: Determination of the Km and Vmax of Cathepsin B for Z-Arg-Arg-AMC
The solution of cathepsin B (human Liver) (50 μL, 2 nM) in assay buffer used above was mixed with 50 μL of solution of substrate Z-Arg-Arg-AMC in the assay buffer at different concentrations ([S]) (25 μM, 50 μM, 100 μM, 500 μM and 1 mM). The mixture was incubated at 37° C. and the fluorescence of the liberated aminomethylcoumarin at 460 nM using 355 nm excitation was measured at predetermined time points (0, 2, 4, 6, 8, and 10 minutes). The fluorescence intensity was plotted versus time and the reaction rates (v0) were calculated as the slope of the trend lines obtained by liner regression. Km and maximum reaction rate (Vmax-obs) was determined from the equation v0=Vmax[S]/(Km+[S]) and solved by nonlinear regression using GraphPad Prism 5. All measurements were in biological triplicate.
Determination of the Inhibition Constant (Ki) of the Compounds to Cathepsin B
The cathepsin B (human Liver) in assay buffer (25 μL) was mixed with the conjugate (25 μL) in 96-well plate. After the solution was mixed, the Z-Arg-Arg-AMC in assay buffer (50 μL) was added to the well, yielding a final cathepsin B concentration of 1 nM, conjugate concentration ([C]) of 15 nM or 5 μM, and substrate concentration ([S]) of 25 μM, 50 μM, 100 μM, 500 μM and 1 mM. The mixture was incubated at 37° C. and the fluorescence of the liberated aminomethylcoumarin at 460 nM using 355 nm excitation was measured at predetermined time points (0, 2, 4, 6, 8, and 10 minutes). The fluorescence intensity was plotted versus time with observed reaction rates (v0-obs) calculated as the slope of the trend lines obtained by liner regression. The observed rate constant (Kobs) and observed maximum reaction rate (Vmax-obs) was determined from the equation v0-obs=Vmax-obs [S]/(Kobs+[S]) and solved by nonlinear regression using GraphPad Prism 5. The Ki was calculated from the equation Kobs=Km (1+[C]/Ki). All measurements were in biological triplicate.

[2] = Distribution coefficient (Log D7.4) of the conjugates; format: physicochemical; conditions: determined by HPLC analysis
HT-29 cells [3] = experiment: HT-29 cell efflux study; format: cell-based, human; conditions: at 24 hours
Description: The HT-29 Cell Efflux Studies
The ^177Lu radioconjugate was added to a sterilized 1.5 mL microcentrifuge tube containing HT-29 cells ˜1×10^6) suspended in 300 μL of cell culture medium, yielding a final radioactivity concentration of 100,000 cpm/100 μL, and was incubated for 2 hours at 37° C. After the removal of the culture medium, the cells were washed with fresh medium (5×500 μL) followed by the addition of 500 μL of fresh medium for the efflux assay. At 0, 1, 2, 4, 8, and 24 hour time interval, fresh medium (500 μL) was added to the tube to replace the old medium which was harvested for quantitative analysis of the effluxed radioactivity using a gamma counter. The cells were lysed with a 10% aqueous SDS solution at 24 hour to quantify the remaining internalized radioactivity. The effluxed fraction is expressed as a percentage of the total radioactivity added to the tube, which is the sum of the effluxed and internalized fractions obtained from the study.

HT-29 cells [4] = experiment: Intracellular trapping of the radioconjugates in living HT-29 cells (GPC, SDS-PAGE); format: cell-based, human; conditions: for intracellular adduct formation (in words): live HT-29 cells, GPC and SDS-PAGE
Description: Intracellular Trapping of the Radioconjugates in Living HT-29 Cells
To the HT-29 cells (1×10^6/well) seeded in 6-well plates was added the radioconjugates (0.74 MBq, 20 μCi) in 1 mL of cell culture medium. The cells were incubated at 37° C. for 4 hours and the medium was removed by vacuum followed washing with PBS (2×2 mL). The cells (˜3×10^6) were trypsinized and combined in microcentrifuge. The RIPA buffer (100 μL) containing Halttmprotease inhibitor (100×, 1 μL) was added to the cell pellet and vigorously vortexed for 1 minute. The suspension was incubated on ice for 15 minutes and centrifuged to remove the pellet. The supernatant (80 μL) was equally divided into two portions. The first portion (40 μL) was directly analyzed by radioactive-GPC with a flow rate of 0.6 mL/minute (40% ACN in PBS containing 0.1% sodium azide). The second portion (40 μL) of the cell lysate was mixed with Novex Tris-Glycine SDS sample buffer (2×) (40 μL) and incubated for another 15 minutes. The mixture (30 μL) was loaded onto a Novex 16% tris-glycine gel and analyzed by SDS-PAGE at 110 V for 90 minutes. The autoradiograph of the SDS-PAGE was performed as described above.

[5] = target: T1, cathepsin B (human Liver); experiment: Cathepsin B binding of the radioconjugates (autoradiographic SDS-PAGE); conditions: 2 hours
Description: Cathepsin B Binding of the Radioconjugates This procedure uses the same solutions as described above. The cathepsin B (human Liver)(3 nM, 10 μL) in storing buffer was added to the solution of the radioconjugate (500,000 cpm) in 40 μL of binding assay buffer and kept on ice for 2 hours. An aliquot (25 μL) of the solution was mixed with Novex Tris-Glycine SDS sample buffer (2×) (25 μL) and incubated for a further 10 minutes. The mixtures (20 μL) were loaded onto a Novex 16% tris-glycine gel and analyzed by SDS-PAGE at 110 V for 90 minutes. The autoradiograph of the SDS-PAGE was performed as described above.

[6] = Distribution coefficient (Log D7.4) of the conjugates; format: physicochemical
Description: Distribution Coefficient (Log D7.4) of the Conjugates The distribution coefficient was determined for each ^177Lu-labeled conjugate. In a 1.5 mL centrifuge tube, 0.5 mL of 1-octanol was added to 0.5 mL of PBS (pH 7.4) containing the radiolabeled peptide (500,000 cpm). The solution was vigorously vortexed for 2 minutes at room temperature and subsequently centrifuged to yield two immiscible layers. The radioactivity of the aliquots (100 μL) taken from each layer were quantified by the gamma counter and the Log D7.4 for each conjugates was calculated.

CatB = CatB (Homo sapiens, UniProt P07858); experiment: CatB inhibition of GRPR-targeted agents; format: biochemical
Description: The Inhibition of Cathepsin B Activity by the Conjugates The phosphate buffer (0.1 M, pH=5.8) containing EDTA (1 mM), DTT (2.7 mM), and Brij®35 (0.03%) was prepared before the assay. […] The solution of cathepsin B (human Liver) in assay buffer (50 μL, 0.544 nM) was added to the mixture which was further incubated at 37° C. for 20 minutes. The fluorescence of the liberated aminomethylcoumarin at 460 nM using 355 nm excitation was measured and the IC50 of the cathepsin B inhibition versus the samples without the inhibitor was determined by nonlinear regression using GraphPad Prism 5.

PC-3 cells [7] = experiment: Efflux study in PC-3 cells; format: cell-based, human; conditions: over a 24 hour time period
PC-3 cells [8] = experiment: Cellular adduct study (SDS-PAGE of cellular lysates); format: cell-based, human
PC-3 tumor [9] = experiment: Autoradiography of SDS-PAGE of tissue lysates from PC-3 tumor bearing mice; format: in vivo; conditions: liver, pancreas, kidney at 24 and 72 hours post-injection
PC-3 tumor [10] = conditions: mouse, in vivo

| Compound | logD7.4 [2] | inhibition of catB (in words) (CatB) | CatB K1 [1] | efflux (HT-29 cells [3]) | intracellular adduct formation (in words) (HT-29 cells [4]) | logD7.4 ([6]; GRPR-targeted agents) | reduction in efflux compared to the analogous control (PC-3 cells [7]) | cellular adducts (in words) (PC-3 cells [8]) | adduct formation in tissue lysates (in words) (PC-3 tumor [9]) | tumor retention (PC-3 tumor [10]) | further results |
| --- | --- | --- | --- | --- | --- | --- | --- | --- | --- | --- | --- |
| Cc1cc(C)c(C(=O)OCC(=O)[C@H](CCCCNC(=O)COCCOCCOCCn2cc(C[C@H](NC(=O)CN3CCN(CC(=O)O)CCN(CC(=O)O)CCN(CC(=O)O)CC3)C(=O)NCCC(=O)N[C@@H](CCCCN)C(=O)N3CCC[C@H]3C(=O)N(C)[C@@H](CCCNC(=N)N)C(=O)N[C@@H](CCCNC(=N)N)C(=O)N3CCC[C@H]3C(=O)N[C@@H](Cc3c(C)cc(O)cc3C)C(=O)N[C@H](C(=O)N[C@@H](CC(C)C)C(=O)O)C(C)(C)C)nn2)NC(=O)[C@H](Cc2ccccc2)NC(=O)OCc2ccccc2)c(C)c1 [Compound 2c] |  |  |  | 36% | multiple macromolecule adducts formed |  |  |  |  |  | percentage of macromolecular adducts with respect to total intracellular activity (HT-29 cells [4]; GPC profile, HT-29 cells, 4 hours incubation): 61%; adduct formation with CatB (in words) [5]: adduct formation |
| Cc1cc(O)cc(C)c1C[C@H](NC(=O)[C@@H]1CCCN1C(=O)[C@H](CCCNC(=N)N)NC(=O)[C@H](CCCNC(=N)N)N(C)C(=O)[C@@H]1CCCN1C(=O)[C@H](CCCCN)NC(=O)CCNC(=O)[C@H](Cc1cn(CCOCCOCCOCC(=O)NCCCC[C@H](NC(=O)[C@H](Cc2ccccc2)NC(=O)OCc2ccccc2)C(=O)NCCc2ccccc2)nn1)NC(=O)CN1CCN(CC(=O)O)CCN(CC(=O)O)CCN(CC(=O)O)CC1)C(=O)N[C@H](C(=O)N[C@@H](CC(C)C)C(=O)O)C(C)(C)C [Compound 3a] |  |  | ni | 66% | no adduct formation |  |  |  |  |  | logD7.4 ([6]; determined by radiometric analysis, 177Lu-labeled conjugate): −1.56 ± 0.07^b; Ki and inhibition IC50 to CatB (in words) [1]: did not demonstrate any inhibition |
| CSCC[C@H](NC(=O)[C@H](CC(C)C)NC(=O)[C@H](Cc1c[nH]cn1)NC(=O)CNC(=O)[C@@H](NC(=O)[C@H](C)NC(=O)[C@H](Cc1c[nH]c2ccccc12)NC(=O)[C@H](CCC(N)=O)NC(=O)CCOCCOCCOCCOCCNC(=O)[C@H](Cc1cn(CCNC(=O)[C@H](CCCNC(=N)N)NC(=O)[C@H](CC(C)C)NC(=O)C2OC2C(=O)O)nn1)NC(=O)CN1CCN(CC(=O)O)CCN(CC(=O)O)CCN(CC(=O)O)CC1)C(C)C)C(N)=O (stereo partly shown) [^177Lu-A-AG, metal not drawn] |  | low nanomolar inhibition |  |  |  | −3.1 ± 0.1 | ~20% | cellular adducts are observed | formation of adducts | 62% |  |
| CC(C)C[C@H](NC(=O)C1OC1C(=O)O)C(=O)N[C@@H](CCCNC(=N)N)C(=O)NCCn1cc(C[C@H](NC(=O)CN2CCN(CC(=O)O)CCN(CC(=O)O)CCN(CC(=O)O)CC2)C(=O)NCCOCCOCCOCCOCCC(=O)N[C@H](Cc2ccccc2)C(=O)N[C@@H](CCC(N)=O)C(=O)N[C@@H](Cc2c[nH]c3ccccc23)C(=O)N[C@@H](C)C(=O)N[C@H](C(=O)NCC(=O)N[C@@H](Cc2c[nH]cn2)C(=O)N[C@@H](CC(C)C)[C@@H](O)CC(=O)N[C@H](CC(C)C)C(N)=O)C(C)C)nn1 (stereo partly shown) [^177Lu-A-ANT, metal not drawn] |  | low nanomolar inhibition |  |  |  | −2.3 ± 0.2 | 5% | cellular adducts are observed | formation of adducts | 32% |  |

The next lines start with results.

| logD7.4 [2] | inhibition of catB (in words) (CatB) | Compound | CatB K1 [1] | efflux (HT-29 cells [3]) | intracellular adduct formation (in words) (HT-29 cells [4]) | logD7.4 ([6]; GRPR-targeted agents) | reduction in efflux compared to the analogous control (PC-3 cells [7]) | cellular adducts (in words) (PC-3 cells [8]) | adduct formation in tissue lysates (in words) (PC-3 tumor [9]) | tumor retention (PC-3 tumor [10]) | further results |
| --- | --- | --- | --- | --- | --- | --- | --- | --- | --- | --- | --- |
| 2.08 ± 0.08^a |  | Cc1cc(C)c(C(=O)OCC(=O)[C@H](CCCCN)NC(=O)[C@H](Cc2ccccc2)NC(=O)OCc2ccccc2)c(C)c1 [Compound 1a] |  |  |  |  |  |  |  |  | Ki ([1]; read-out: CatB K1): 23 ± 1 nM |
| 2.51 ± 0.02^a |  | NCCCCC(NC(=O)C(Cc1ccccc1)NC(=O)OCc1ccccc1)C(=O)NCCc1ccccc1 (stereo not shown) [Compound 1b] | ni^c |  |  |  |  |  |  |  |  |
